Tested on: CD133+ glioma stem cells
Experiment: Clonogenic survival assay (neurosphere formation)
Assay type: cell-based, human
Conditions: T4302, 3-Gy radiation
Source text: FIG. 1 is a series of graphs illustrating that γ-secretase inhibitors reduce cell growth and clonogenic survival of glioma stem cells following radiation. (A) T4302 CD133+ glioma stem cells were transfected with a Notch-responsive luciferase reporter (RBP-JK reporter) pre-mixed with the vector directing constitutive expression of Renilla luciferase. Cells were left unirradiated or irradiated at 3 Gy, and were then collected to measure luciferase activities at time points as indicated. […] The relative mRNA levels of Hes2 were determined by quantitative real-time PCR at the time points as indicated. […] Total viable cell numbers were then determined by the CellTiter-Glo Luminescent Cell Viability Assay (Promega) for the following five days. […] Cells were then plated to form neurospheres, and the surviving fractions were determined as described in methods. […] (F,G) Neurosphere formation of T3359 and T4105 CD 133+ cells treated with GSIs alone, 3-Gy radiation alone, or the combination was determined as described in FIG. 1E. *: p<0.05 by Student's t-test; #: p<0.001 by one-way ANOVA.
To measure clonogenic survival, CD133+ glioma cells were plated in 24-well plates at 50 cells per well for the sham-irradiated groups, 100 cells per well for cells irradiated at 1 Gy, or 500 cells per well for cells irradiated at 2 or 3 Gy. […] Fourteen days after plating, neurospheres containing more than 50 cells were scored. […]

Compound: CC(NC(=O)Cc1cc(F)cc(F)c1)C(=O)NC(C(=O)OC(C)(C)C)c1ccccc1 [DAPT, N-[N-(3,5-Difluorophenacetyl-L-alanyl)]-S-phenylglycine t-Butyl Ester]
- clonogenic survival of irradiated NICD2-expressing cells: did not significantly alter

— patent publication US20110059114A1, “Compositions and Methods for the Treatment of Radioresistant Glioma Stem Cells” (DUKE UNIVERSITY, priority 2009, published 2011)
